# Experiments:
# M-HeLa = experiment: MTT cytotoxicity, M-HeLa; type: cell-based, human; details: M-HeLa
# Description: (§1) Cells and Materials. For the experiments, we used tumor cell cultures M-HeLa clone 11 (epithelioid carcinoma of the cervix, subline HeLa, clone M-HeLa), HuTu 80, human duodenal adenocarcinoma, Hep-2, human epithelial cells, SH-SY5Y, human neuroblast-like cells, A549, human lung adenocarcinoma, PA-1, human ovarian teratocarcinoma and MCF-7, a human mammary ductal adenocarcinoma from the collection of the Institute of Cytology, Russian Academy of Sciences (St. Petersburg, Russia); human liver cells (Chang liver) were from the collection and the Research Institute of Virology of the Russian Academy of Medical Sciences (Moscow, Russia).
# (§2) MTT Assay. The cytotoxic effect on cells was determined using the colorimetric method of cell proliferation—the MTT test. NADP-H-dependent cellular oxidoreductase enzymes can, under certain conditions, reflect the number of viable cells. These enzymes reduce the tetrazolium dye (MTT) 3-(4,5-dimethylthiazol-2-yl)-2,5-diphenyl-tetrazolium bromide to insoluble blue-violet formazan, which crystallizes inside the cell. The amount of formed formazan is proportional to the number of cells with active metabolism. Cells were seeded on a 96-well Nunc plate at a concentration of 5 × 10^3 cells per well in a volume of 100 μL of medium and cultured in a CO2 incubator at 37 °C until a monolayer was formed. After the nutrient medium was removed, 100 µL of the test drug solutions at the given dilutions were added to the wells, which were prepared directly in the nutrient medium with the addition of 5% DMSO to improve solubility. After 48 h of incubation of the cells with the tested compounds, the nutrient medium was removed from the plates and 100 µL of the nutrient medium without serum with MTT at a concentration of 0.5 mg/mL was added and incubated for 4 h at 37 °C. Formazan crystals were added 100 µL of DMSO to each well. Optical density was recorded at 540 nm on an Invitrologic microplate reader (Novosibirsk, Russia). The experiments for all compounds were repeated three times.
# (§3) Statistical analysis. The IC50 values were calculated using the MLA–Quest Graph™ IC50 Calculator (AAT Bioquest, Inc., Sunnyvale, CA, USA), 14 February 2022. Statistical analysis was performed with the Mann–Whitney test (p < 0.05). Tabular and graphical data contain averages and standard error.
# Chang Liver = experiment: MTT cytotoxicity, normal Chang liver cells; type: cell-based, human; details: Homo sapiens, Chang liver, 48 h incubation, read-out: IC50 (µM) Normal Cell Line Chang Liver
# Description: as §1, §2, §3
# SH-SY5Y = experiment: MTT cytotoxicity, SH-SY5Y; type: cell-based; details: Homo sapiens, read-out: IC50 (µM) Cancer Cell Lines SH-SY5Y
# Description: as §1
# (§4) MTT Assay. The cytotoxic effect on cells was determined using the colorimetric method of cell proliferation—the MTT test. NADP-H-dependent cellular oxidoreductase enzymes can, under certain conditions, reflect the number of viable cells. These enzymes reduce the tetrazolium dye (MTT) 3-(4,5-dimethylthiazol-2-yl)-2,5-diphenyl-tetrazolium bromide to insoluble blue-violet formazan, which crystallizes inside the cell. The amount of formed formazan is proportional to the number of cells with active metabolism. […] Optical density was recorded at 540 nm on an Invitrologic microplate reader (Novosibirsk, Russia). […]
# (§5) Statistical analysis. The IC50 values were calculated using the MLA–Quest Graph™ IC50 Calculator (AAT Bioquest, Inc., Sunnyvale, CA, USA), 14 February 2022. […]
# A549 = experiment: MTT cytotoxicity, A549; type: cell-based; details: Homo sapiens, read-out: IC50 (µM) Cancer Cell Lines A549
# Description: as §1, §4, §5
# PA-1 = experiment: MTT cytotoxicity, PA-1; type: cell-based; details: Homo sapiens, read-out: IC50 (µM) Cancer Cell Lines PA-1
# Description: as §1, §4, §5
# HuTu 80 cells = experiment: Induction of apoptosis, flow cytometry (annexin V-Alexa Fluor 647 / propidium iodide); type: cell-based, human; details: IC50/2 and IC50, 24 h
# Procedure: The ability of the new compounds, proposed as antitumor agents, to induce cell death via apoptosis is a critical feature for their potential use in therapy. The apoptosis-inducing effects of lead compounds were investigated using flow cytometry at IC50/2 and IC50 concentrations on the HuTu 80 cell line (Figure 6A).
# Cell Culture. HuTu 80 cells at 1 × 10^6 cells/well in a final volume of 2 mL were seeded into six-well plates. After 48 h of incubation, various concentrations of lead compounds were added to wells.
# Cell Apoptosis Analysis. The cells were harvested at 2000 rpm for 5 min and were then washed twice with ice-cold PBS, and resuspended in binding buffer. Next, the samples were incubated with 5 μL of annexin V-Alexa Fluor 647 (Sigma-Aldrich, St Louis, MO, USA) and 5 μL of propidium iodide for 15 min at room temperature in the dark. Finally, the cells were analyzed using flow cytometry (Guava easy Cyte, MERCK, Rahway, NJ, USA) within 1 h. The experiments were repeated three times.
compound,measurement,setting,value
O=C(C[P+](c1ccccc1)(c1ccccc1)c1ccccc1)NCCC1c2c(ccc3ccccc23)Oc2ccc3ccccc3c21 [Compound 6a],IC50,"M-HeLa; Homo sapiens, MTT, 48 h incubation, read-out: IC50 (µM) Cancer Cell Lines M-HeLa",11 ± 8.7 µM
same,times more effective than the reference drug sorafenib,M-HeLa,three times more effective
same,IC50,Chang Liver,41 ± 3.5 µM
same,IC50,SH-SY5Y,10.9 ± 0.23 µM
same,IC50,A549,5.47 ± 0.07 µM
same,IC50,PA-1,11.2 ± 1.36 µM
same,apoptosis-inducing effect (in words),HuTu 80 cells,dose-dependent apoptosis
